Experiment: Acute toxicity by the Weill method
Details: in vivo, mouse, read-out: LD₅₀
Description: The acute toxicity of the compounds according to the invention was studied on the mouse by the Weill method (Weill C.S. Biomed. J. 8 249 (1952)). […] For the compound of formula (I) wherein n=1 and R, R¹ equal to H, the LD₅₀ is higher than 2000 mg/kg.

## C[N+](C)(C)CCOP(=O)([O-])OP(=O)(O)OCC(O)CO (stereo not drawn) [choline α-glyceryl disphosphate]
  LD50: > 2000 mg/kg

Reference: patent EP0329053A1, “Choline esters of glycerophosphoric acids” (MAGIS FARMACEUTICI S.p.A., priority 1988, dated 1989)
